Test results as given in publication PMC4194318, “Genetic and pharmacological evidence that G2019S LRRK2 confers a hyperkinetic phenotype, resistant to motor decline associated with aging” (Neurobiology of Disease, 2014).

Tests used:
[1] = target: T1, LRRK2 (leucine-rich repeat kinase 2) (Mus musculus, UniProt Q5S006); experiment: Western blot of LRRK2 pSer935 in NIH3T3 cells, […] min; also ex vivo mouse striatum and cortex; format: cell-based
T1 construct: endogenous LRRK2 in NIH3T3 cells

[2] = target: T2, LRRK2 (leucine-rich repeat kinase 2) (Mus musculus, UniProt Q5S006, G2019S); experiment: ex vivo Western blot of LRRK2 pSer935, […] min after […] mg/kg i.p.; format: cell-based
T2 construct: endogenous LRRK2 in striatum of G2019S knock-in mice
T2 sequence (Q5S006 whole entry G2019S): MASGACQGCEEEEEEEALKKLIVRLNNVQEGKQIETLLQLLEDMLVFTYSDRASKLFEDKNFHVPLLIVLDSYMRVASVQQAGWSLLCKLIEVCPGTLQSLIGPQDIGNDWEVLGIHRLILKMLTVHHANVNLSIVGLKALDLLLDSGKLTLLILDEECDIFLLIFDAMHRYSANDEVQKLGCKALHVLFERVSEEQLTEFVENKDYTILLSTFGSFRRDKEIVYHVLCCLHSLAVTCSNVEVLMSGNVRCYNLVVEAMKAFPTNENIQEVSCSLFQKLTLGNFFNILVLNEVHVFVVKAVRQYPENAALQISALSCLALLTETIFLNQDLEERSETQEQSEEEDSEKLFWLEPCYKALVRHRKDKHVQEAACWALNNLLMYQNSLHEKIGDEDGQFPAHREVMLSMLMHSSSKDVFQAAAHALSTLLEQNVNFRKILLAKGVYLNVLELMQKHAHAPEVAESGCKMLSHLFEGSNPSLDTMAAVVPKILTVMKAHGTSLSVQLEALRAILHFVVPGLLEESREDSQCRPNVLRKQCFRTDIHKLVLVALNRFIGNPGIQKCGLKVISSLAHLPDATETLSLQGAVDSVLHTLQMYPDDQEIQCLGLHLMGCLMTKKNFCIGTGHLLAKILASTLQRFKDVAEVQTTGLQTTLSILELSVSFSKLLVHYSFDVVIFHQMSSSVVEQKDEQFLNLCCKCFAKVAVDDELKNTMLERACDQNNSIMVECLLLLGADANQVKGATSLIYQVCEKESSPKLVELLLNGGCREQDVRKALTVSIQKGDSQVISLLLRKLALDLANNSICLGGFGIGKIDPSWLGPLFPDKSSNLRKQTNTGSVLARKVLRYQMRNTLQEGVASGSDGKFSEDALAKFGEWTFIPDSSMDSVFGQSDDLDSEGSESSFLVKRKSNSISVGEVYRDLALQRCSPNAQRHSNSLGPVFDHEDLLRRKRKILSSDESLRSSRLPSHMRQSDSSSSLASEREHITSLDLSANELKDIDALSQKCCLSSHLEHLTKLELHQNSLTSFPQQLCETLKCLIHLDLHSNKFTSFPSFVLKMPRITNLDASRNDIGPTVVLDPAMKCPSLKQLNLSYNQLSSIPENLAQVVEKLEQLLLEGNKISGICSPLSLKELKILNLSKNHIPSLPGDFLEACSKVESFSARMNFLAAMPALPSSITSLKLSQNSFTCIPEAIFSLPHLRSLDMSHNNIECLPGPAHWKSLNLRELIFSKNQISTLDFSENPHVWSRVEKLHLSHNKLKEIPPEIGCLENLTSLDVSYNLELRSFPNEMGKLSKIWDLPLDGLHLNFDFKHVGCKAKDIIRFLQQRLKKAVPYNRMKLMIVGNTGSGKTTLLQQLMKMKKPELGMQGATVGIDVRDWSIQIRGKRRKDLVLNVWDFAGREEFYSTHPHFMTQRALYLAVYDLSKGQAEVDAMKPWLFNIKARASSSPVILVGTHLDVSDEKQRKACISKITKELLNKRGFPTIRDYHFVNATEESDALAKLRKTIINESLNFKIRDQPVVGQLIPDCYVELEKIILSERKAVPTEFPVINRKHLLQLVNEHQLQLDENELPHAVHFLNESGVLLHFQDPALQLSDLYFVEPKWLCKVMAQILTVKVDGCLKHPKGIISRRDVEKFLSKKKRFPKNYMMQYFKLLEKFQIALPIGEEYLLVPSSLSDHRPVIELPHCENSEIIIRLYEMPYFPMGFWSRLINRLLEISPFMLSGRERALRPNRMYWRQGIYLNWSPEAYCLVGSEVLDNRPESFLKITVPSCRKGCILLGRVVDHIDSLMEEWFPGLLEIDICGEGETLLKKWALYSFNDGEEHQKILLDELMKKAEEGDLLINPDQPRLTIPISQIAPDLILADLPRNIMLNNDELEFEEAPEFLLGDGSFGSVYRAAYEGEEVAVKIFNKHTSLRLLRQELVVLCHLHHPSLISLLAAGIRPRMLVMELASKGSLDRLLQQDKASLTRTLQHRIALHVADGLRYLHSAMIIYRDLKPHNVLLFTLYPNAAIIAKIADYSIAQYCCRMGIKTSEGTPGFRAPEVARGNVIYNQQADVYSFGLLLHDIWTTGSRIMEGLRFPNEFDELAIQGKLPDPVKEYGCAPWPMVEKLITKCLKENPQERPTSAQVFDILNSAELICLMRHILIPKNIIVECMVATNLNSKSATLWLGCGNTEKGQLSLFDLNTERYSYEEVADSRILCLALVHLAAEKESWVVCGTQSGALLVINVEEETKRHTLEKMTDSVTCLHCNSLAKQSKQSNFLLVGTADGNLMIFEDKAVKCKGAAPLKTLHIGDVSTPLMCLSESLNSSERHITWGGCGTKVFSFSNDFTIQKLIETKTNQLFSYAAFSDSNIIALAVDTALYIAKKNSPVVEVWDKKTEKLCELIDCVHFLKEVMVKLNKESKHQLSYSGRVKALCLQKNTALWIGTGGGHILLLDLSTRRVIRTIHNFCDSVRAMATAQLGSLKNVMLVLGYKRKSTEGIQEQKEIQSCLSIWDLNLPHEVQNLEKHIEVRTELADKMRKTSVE

T1 sequence (Q5S006 whole entry): as the sequence (Q5S006 whole entry G2019S) above, with S2019G counted along it

Row | Structure (SMILES) | IC50 [1] [nM] | ex vivo Western blot of LRRK2 pSer935, 20 min after 1 mg/kg i.p. [2]
1 | CC(=O)N1CCc2[nH]c(/C=C3\C(=O)Nc4ccc(OC(C)C)cc43)cc2C1 [Nov-LRRK2-11] | 0.38 | –
2 | Cc1cncc2cccc(S(=O)(=O)N3CCCNC[C@@H]3C)c12 [H-1152, (S)-(+)-2-methyl-1-[(4-methyl-5-isoquinoline)sulfonyl]-homopiperazine] | – | H-1152 attenuated endogenous LRRK2 phosphorylation at Ser935 in striatum but not cerebral cortex of G2019S knock-in (G2019S KI) mice
